Laboratory results taken from patent US10538508B2, “Substituted amino triazoles useful as human chitinase inhibitors” (OncoArendi Therapeutics S.A., priority 2015, dated 2020).

The compounds below were run against recombinant human AMCase (Homo sapiens (Human), UniProt Q9BZP6) (assay: Human AMCase Activity Assay). Settings: citrate buffer pH 5.2, 37° C., 60 minutes, read-out: Activity on hAMCase, IC50.
Type: biochemical

Sequence of recombinant human AMCase (Q9BZP6 22-476): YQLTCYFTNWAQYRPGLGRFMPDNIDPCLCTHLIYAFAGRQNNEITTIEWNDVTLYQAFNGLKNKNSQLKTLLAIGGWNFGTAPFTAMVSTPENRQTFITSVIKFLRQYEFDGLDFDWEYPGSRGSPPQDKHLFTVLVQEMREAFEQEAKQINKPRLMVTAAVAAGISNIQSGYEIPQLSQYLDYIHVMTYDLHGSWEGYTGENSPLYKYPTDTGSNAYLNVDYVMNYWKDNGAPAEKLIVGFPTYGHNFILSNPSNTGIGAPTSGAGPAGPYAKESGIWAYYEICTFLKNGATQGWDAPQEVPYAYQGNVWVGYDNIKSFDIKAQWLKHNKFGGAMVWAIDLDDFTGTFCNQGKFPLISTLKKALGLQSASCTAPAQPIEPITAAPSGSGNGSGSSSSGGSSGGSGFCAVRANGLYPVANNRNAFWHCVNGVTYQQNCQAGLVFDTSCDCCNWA

| IC50 | Compound |
| --- | --- |
| < 0.1 µM | CN1C[C@H](Cc2ccc(Cl)cc2)N(C2CCN(c3nnc(N)[nH]3)CC2)C[C@@H]1Cc1ccc(Cl)cc1 [Example 31, 5-(4-((2S,5S)-2,5-bis(4-chlorobenzyl)-4-methylpiperazin-1-yl)piperidin-1-yl)-4H-1,2,4-triazol-3-amine] |
| < 0.1 µM | CN1C[C@H](Cc2ccc(Cl)cc2)N(C2CCN(c3nnc(N)[nH]3)CC2)C[C@@H]1CC1CCCCC1 [Example 32, 5-(4-((2 S, 5S)-2-(4-chlorobenzyl)-5-(cyclohexylmethyl)-4-methylpiperazin-1-yl)piperidin-1-yl)-4H-1,2,4-triazol-3-amine] |
| < 0.1 µM | CC(C)C[C@H]1CN(C2CCN(c3nnc(N)[nH]3)CC2)[C@@H](Cc2ccc(Cl)cc2)CN1C [Example 33, 5-(4-((2S,5S)-2-(4-chlorobenzyl)-5-isobutyl-4-methylpiperazin-1-yl)piperidin-1-yl)-4H-1,2,4-triazol-3-amine] |

The compounds below were run against recombinant human CHIT1 (Homo sapiens (Human), UniProt Q13231) (assay: Human CHIT1 Activity Assay). Settings: recombinant human CHIT1, citrate buffer pH 5.2, 37° C., 60 minutes; read-out: Activity on hCHIT1, IC50.
Sequence of recombinant human CHIT1 (Q13231 22-466): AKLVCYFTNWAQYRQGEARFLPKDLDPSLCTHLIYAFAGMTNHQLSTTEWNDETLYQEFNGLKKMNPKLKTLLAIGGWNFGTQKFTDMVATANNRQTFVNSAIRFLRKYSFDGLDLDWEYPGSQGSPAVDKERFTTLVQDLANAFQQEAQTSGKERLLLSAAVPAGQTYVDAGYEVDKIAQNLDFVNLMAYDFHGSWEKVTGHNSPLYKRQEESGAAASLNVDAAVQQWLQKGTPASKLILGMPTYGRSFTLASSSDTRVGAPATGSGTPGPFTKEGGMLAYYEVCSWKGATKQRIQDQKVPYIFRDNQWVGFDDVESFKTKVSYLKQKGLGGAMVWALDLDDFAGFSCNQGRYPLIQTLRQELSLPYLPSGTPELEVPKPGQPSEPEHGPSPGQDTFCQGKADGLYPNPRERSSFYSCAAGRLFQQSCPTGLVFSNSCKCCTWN
Type: biochemical

| IC50 | Compound |
| --- | --- |
| < 0.1 µM | COC(C)(C)[C@H]1CN(C2CCN(c3nnc(N)[nH]3)CC2)[C@@H](Cc2ccc(Cl)cc2)CO1 [Example 14, 5-(4-((2R,5S)-5-(4-chlorobenzyl)-2-(2-methoxypropan-2-yl)morpholino)piperidin-1-yl)-4H-1,2,4-triazol-3-amine] |
| 10 to 100 µM | C[C@H]1CN(C2CCN(c3nnc(N)[nH]3)CC2)[C@@H](Cc2ccc(Cl)cc2)CN1S(C)(=O)=O [Example 37, 5-(4-((2S,5S)-2-(4-chlorobenzyl)-5-methyl-4-(methylsulfonyl)piperazin-1-yl)piperidin-1-yl)-4H-1,2,4-triazol-3-amine] |
| 10 to 100 µM | COC(=O)N1C[C@H](Cc2ccc(Cl)cc2)N(C2CCN(c3nnc(N)[nH]3)CC2)C[C@@H]1C [Example 39, methyl (2S,5S)-4-(1-(5-amino-4H-1,2,4-triazol-3-yl)piperidin-4-yl)-5-(4-chlorobenzyl)-2-methylpiperazine-1-carboxylate] |
| 0.1 to 1 µM | COC(=O)CN1C[C@H](Cc2ccc(Cl)cc2)N(C2CCN(c3nnc(N)[nH]3)CC2)C[C@@H]1C [Example 40, methyl 2-((2S,5S)-4-(1-(5-amino-4H-1,2,4-triazol-3-yl)piperidin-4-yl)-5-(4-chlorobenzyl)-2-methylpiperazin-1-yl)acetate] |
| 10 to 100 µM | C[C@H]1CN(C2CCN(c3nnc(N)[nH]3)CC2)[C@@H](Cc2ccc(Cl)cc2)C(C)(C)O1 [Example 53, 5-(4-((3S,6S)-3-(4-chlorobenzyl)-2,2,6-trimethylmorpholino)piperidin-1-yl)-4H-1,2,4-triazol-3-amine] |
